From ChEMBL document CHEMBL1201862, “PubChem BioAssay data set” (2004)
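Interpolation was linear, between the two tested concentrations surrounding the appropriate level; five concentrations were tested over 48 hours in 96-well plates. Here, GI50 denotes the concentration required for 50% inhibition of growth.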 Activity calls are given as the source filed them. Rule as the data show it: active = GI50 up to about 1.1 µM and inactive = higher.

Legend:
Experiment in all cases: NCI-60 cell line screen, 48 h
A498 = system: A498
A549 = system: A549
HCC 2998 = system: HCC 2998
HCT-116 = system: HCT-116
K562 = system: K562
LOX IMVI = system: LOX IMVI
OVCAR-5 = system: OVCAR-5
RPMI-8226 = system: RPMI-8226
SF-295 = system: SF-295
SF-539 = system: SF-539
SK-MEL-2 = system: SK-MEL-2
SK-MEL-5 = system: SK-MEL-5
SN12C = system: SN12C
SNB-19 = system: SNB-19
TK-10 = system: TK-10
UACC-257 = system: UACC-257
UACC-62 = system: UACC-62
UO-31 = system: UO-31
DU-145 = system: DU-145
Hs-578T = system: Hs-578T

Structure (SMILES)	GI50 (A498)	GI50 (A549)	GI50 (HCC 2998)	GI50 (HCT-116)	GI50 (K562)	GI50 (LOX IMVI)	GI50 (OVCAR-5)	GI50 (RPMI-8226)	GI50 (SF-295)	GI50 (SF-539)	GI50 (SK-MEL-2)	GI50 (SK-MEL-5)	GI50 (SN12C)	GI50 (SNB-19)	GI50 (TK-10)	GI50 (UACC-257)	GI50 (UACC-62)	GI50 (UO-31)	GI50 (DU-145)	GI50 (Hs-578T)
Cc1ccc(C)c(C(=O)CC2OC(O)C(Cl)C2Cl)c1 (stereo not given)	> 100 µM (inactive)	> 100 µM (inactive)	> 100 µM (inactive)	29.7 µM (inactive)	32.5 µM (inactive)	18.9 µM (inactive)	> 100 µM (inactive)	12.4 µM (inactive)	> 100 µM (inactive)	24 µM (inactive)	84.5 µM (inactive)	> 100 µM (inactive)	5.7 µM (inactive)	> 100 µM (inactive)	> 100 µM (inactive)	> 100 µM (inactive)	57.3 µM (inactive)	> 100 µM (inactive)		
COc1ccc2c(c1O)-c1cc(O)cc3c1[C@@H](C2)N(C)CC3	49.9 µM (inactive)	77.1 µM (inactive)	73.6 µM (inactive)	27 µM (inactive)	67.6 µM (inactive)	56.6 µM (inactive)	6.41 µM (inactive)	75.3 µM (inactive)	72.3 µM (inactive)	81.1 µM (inactive)	27.5 µM (inactive)	62.2 µM (inactive)	82 µM (inactive)	101 µM (inactive)		71 µM (inactive)	70 µM (inactive)	44.2 µM (inactive)		
c1ccc2c(c1)OCCc1cn[nH]c1-2	> 93.5 µM (inactive)	> 100 µM (inactive)	> 100 µM (inactive)	> 100 µM (inactive)	> 100 µM (inactive)	> 100 µM (inactive)	> 100 µM (inactive)		> 100 µM (inactive)	> 100 µM (inactive)	> 100 µM (inactive)	> 100 µM (inactive)	> 79.3 µM (inactive)	> 100 µM (inactive)		> 100 µM (inactive)	66.7 µM (inactive)	> 100 µM (inactive)		
Cn1c(=O)[nH]c2nncnc2c1=O	87.1 µM (inactive)	80 µM (inactive)	54 µM (inactive)	29.2 µM (inactive)	211 µM (inactive)	361 µM (inactive)	186 µM (inactive)	77.4 µM (inactive)	103 µM (inactive)	64.9 µM (inactive)	120 µM (inactive)	92.5 µM (inactive)	148 µM (inactive)	51.2 µM (inactive)		75.3 µM (inactive)	44.4 µM (inactive)	46 µM (inactive)		
CNC(=O)SCC(N)C(=O)O (stereo not given)	> 100 µM (inactive)	> 100 µM (inactive)	> 100 µM (inactive)	> 79.4 µM (inactive)	30.6 µM (inactive)	42.2 µM (inactive)	> 100 µM (inactive)	25.4 µM (inactive)	> 66.2 µM (inactive)	> 100 µM (inactive)	> 82 µM (inactive)	> 78.7 µM (inactive)	> 95.9 µM (inactive)	> 100 µM (inactive)		> 100 µM (inactive)	> 94.8 µM (inactive)	> 100 µM (inactive)		
CCOC(=O)CSc1nc(N)c2c(-c3ccc(OC)c(OC)c3)c3c(nc2n1)CCCC3		> 100 µM (inactive)		> 100 µM (inactive)	> 100 µM (inactive)	> 100 µM (inactive)	> 100 µM (inactive)	> 100 µM (inactive)	24.4 µM (inactive)			> 100 µM (inactive)	> 100 µM (inactive)	95.5 µM (inactive)	> 100 µM (inactive)	> 100 µM (inactive)	> 100 µM (inactive)	> 100 µM (inactive)	> 100 µM (inactive)	17.1 µM (inactive)
Cc1cccc2nc3cccc(C(=O)NCCN(C)C)c3nc12	0.266 µM (active)	0.383 µM (active)	1.04 µM (active)	0.293 µM (active)	0.363 µM (active)	0.36 µM (active)	1.61 µM (inactive)		0.643 µM (active)	0.292 µM (active)	1.27 µM (inactive)	0.54 µM (active)	0.339 µM (active)	0.525 µM (active)	0.433 µM (active)	0.491 µM (active)	0.644 µM (active)	0.239 µM (active)		
N=C(CSS(=O)(=O)O)NC1CC2CCC1C2 (stereo not given)	> 100 µM (inactive)	> 100 µM (inactive)		> 100 µM (inactive)	98.6 µM (inactive)	46 µM (inactive)		> 100 µM (inactive)	76.7 µM (inactive)	> 100 µM (inactive)	> 100 µM (inactive)	> 100 µM (inactive)	> 100 µM (inactive)	> 100 µM (inactive)	> 100 µM (inactive)	> 100 µM (inactive)	> 100 µM (inactive)		> 100 µM (inactive)	> 100 µM (inactive)
COc1cc(-c2cc(=O)c3c(O)c(CC=C(C)C)c(O)cc3o2)ccc1O	> 50 µM (inactive)	26 µM (inactive)		16.2 µM (inactive)	16.7 µM (inactive)	19.1 µM (inactive)	> 50 µM (inactive)	11.7 µM (inactive)	12 µM (inactive)	16.9 µM (inactive)	23.6 µM (inactive)	14.6 µM (inactive)	> 50 µM (inactive)	> 50 µM (inactive)	23.4 µM (inactive)	> 50 µM (inactive)	23 µM (inactive)	33.5 µM (inactive)	32.9 µM (inactive)	29.5 µM (inactive)
CC(=O)c1c(P(=O)(OC(C)C)OC(C)C)nn(-c2ccc([N+](=O)[O-])cc2)c1C	> 100 µM (inactive)	> 100 µM (inactive)	> 100 µM (inactive)	> 100 µM (inactive)	> 100 µM (inactive)		> 100 µM (inactive)	> 100 µM (inactive)	> 100 µM (inactive)	> 100 µM (inactive)	> 100 µM (inactive)	> 100 µM (inactive)	> 100 µM (inactive)	> 100 µM (inactive)	> 100 µM (inactive)	> 100 µM (inactive)	> 100 µM (inactive)	> 100 µM (inactive)		
CC1(C)OP(=O)(c2ccccc2)C=C1Sc1ccc([N+](=O)[O-])cc1[N+](=O)[O-] (stereo not given)	> 100 µM (inactive)	> 100 µM (inactive)		36.6 µM (inactive)	27 µM (inactive)	36.6 µM (inactive)	> 100 µM (inactive)		95.9 µM (inactive)	33.7 µM (inactive)	> 100 µM (inactive)	42.7 µM (inactive)	45.9 µM (inactive)	> 100 µM (inactive)	> 100 µM (inactive)	> 100 µM (inactive)	35 µM (inactive)		74.6 µM (inactive)	> 100 µM (inactive)
O=C1c2cccc3cc4ccccc4c(c23)C(=O)N1CCNCCNCCNCCN1C(=O)c2cccc3cc4ccccc4c(c23)C1=O	0.19 µM (active)	< 0.01 µM (active)	< 0.0134 µM (active)	< 0.01 µM (active)	< 0.01 µM (active)	< 0.01 µM (active)	0.158 µM (active)		< 0.01 µM (active)	0.0243 µM (active)	0.119 µM (active)	0.0243 µM (active)	< 0.027 µM (active)	< 0.01 µM (active)		0.201 µM (active)	< 0.01 µM (active)	0.0335 µM (active)		
NC1=NS(=O)(=O)Nc2[nH]c(-c3ccccc3)nc21		> 100 µM (inactive)	> 100 µM (inactive)	> 100 µM (inactive)	> 100 µM (inactive)	> 100 µM (inactive)	> 100 µM (inactive)	> 100 µM (inactive)	> 100 µM (inactive)	> 100 µM (inactive)	> 100 µM (inactive)	> 100 µM (inactive)	> 100 µM (inactive)	> 100 µM (inactive)	> 100 µM (inactive)	> 100 µM (inactive)	> 100 µM (inactive)	> 100 µM (inactive)		
O=C1C=C(Nc2ccc(Br)cc2)c2ccccc2C1=O	17.2 µM (inactive)	12.7 µM (inactive)	15 µM (inactive)	13.6 µM (inactive)	13.9 µM (inactive)		20.8 µM (inactive)	6.73 µM (inactive)	15.8 µM (inactive)	16 µM (inactive)	15.5 µM (inactive)		15.2 µM (inactive)	15.6 µM (inactive)	19.6 µM (inactive)	13.5 µM (inactive)	4.39 µM (inactive)	16 µM (inactive)		
O=C(c1ccccc1)c1ccc2n[se]nc2c1	31.8 µM (inactive)	34.8 µM (inactive)	8.93 µM (inactive)		4.29 µM (inactive)	29.4 µM (inactive)	36.5 µM (inactive)	28.4 µM (inactive)	7.4 µM (inactive)	17.9 µM (inactive)	> 100 µM (inactive)	11.8 µM (inactive)	54.7 µM (inactive)	> 100 µM (inactive)	> 100 µM (inactive)	> 100 µM (inactive)	8.51 µM (inactive)	> 100 µM (inactive)		
C[C@]12CC[C@@H]3c4ccc(OCCN5CCCC5)cc4CC[C@H]3[C@@H]1CCC2=O	81.1 µM (inactive)	23.6 µM (inactive)	10.3 µM (inactive)		25.4 µM (inactive)	7.38 µM (inactive)	33.7 µM (inactive)	23.7 µM (inactive)	18.7 µM (inactive)		17.6 µM (inactive)	13.3 µM (inactive)		64.3 µM (inactive)	41 µM (inactive)	27 µM (inactive)	23.8 µM (inactive)	20.8 µM (inactive)	47.9 µM (inactive)	
